This is an account of results in publication PMC9870012 (Journal of Enzyme Inhibition and Medicinal Chemistry, 2023).

For one assay, the target named is T1, human meprin α (Homo sapiens, UniProt Q16819).
T1 sequence (Q16819 66-746): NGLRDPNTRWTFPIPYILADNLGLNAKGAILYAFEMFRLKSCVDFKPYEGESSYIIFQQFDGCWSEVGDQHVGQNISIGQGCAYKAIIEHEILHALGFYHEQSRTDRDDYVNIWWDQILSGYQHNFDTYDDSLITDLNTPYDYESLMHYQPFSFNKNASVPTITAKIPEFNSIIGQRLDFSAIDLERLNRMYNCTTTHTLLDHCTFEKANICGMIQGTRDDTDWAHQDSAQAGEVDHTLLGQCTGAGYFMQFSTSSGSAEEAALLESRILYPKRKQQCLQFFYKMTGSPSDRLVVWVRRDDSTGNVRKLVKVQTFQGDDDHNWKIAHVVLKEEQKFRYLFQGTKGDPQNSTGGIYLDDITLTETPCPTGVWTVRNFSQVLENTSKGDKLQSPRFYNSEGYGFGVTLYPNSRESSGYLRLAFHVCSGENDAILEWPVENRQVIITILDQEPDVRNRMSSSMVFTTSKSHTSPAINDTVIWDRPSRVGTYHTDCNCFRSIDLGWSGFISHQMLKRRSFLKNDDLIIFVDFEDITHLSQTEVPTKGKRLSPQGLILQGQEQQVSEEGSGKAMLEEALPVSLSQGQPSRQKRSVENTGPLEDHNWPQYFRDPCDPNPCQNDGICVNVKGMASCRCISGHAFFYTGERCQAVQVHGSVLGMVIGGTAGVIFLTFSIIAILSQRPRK
The class given is biochemical. Conditions: for Ki: Ki(app) Meprin α, geometric mean of three independent experiments with standard deviation factor; for SF: selectivity factor (Ki(app) meprin β/Ki(app) meprin α): meprin α over meprin β; for reduction of the meprin α selectivity by factor: compared to 16a.

In the next assay the target is T2, human meprin β (Homo sapiens, UniProt Q16820).
T2 sequence (Q16820 62-701): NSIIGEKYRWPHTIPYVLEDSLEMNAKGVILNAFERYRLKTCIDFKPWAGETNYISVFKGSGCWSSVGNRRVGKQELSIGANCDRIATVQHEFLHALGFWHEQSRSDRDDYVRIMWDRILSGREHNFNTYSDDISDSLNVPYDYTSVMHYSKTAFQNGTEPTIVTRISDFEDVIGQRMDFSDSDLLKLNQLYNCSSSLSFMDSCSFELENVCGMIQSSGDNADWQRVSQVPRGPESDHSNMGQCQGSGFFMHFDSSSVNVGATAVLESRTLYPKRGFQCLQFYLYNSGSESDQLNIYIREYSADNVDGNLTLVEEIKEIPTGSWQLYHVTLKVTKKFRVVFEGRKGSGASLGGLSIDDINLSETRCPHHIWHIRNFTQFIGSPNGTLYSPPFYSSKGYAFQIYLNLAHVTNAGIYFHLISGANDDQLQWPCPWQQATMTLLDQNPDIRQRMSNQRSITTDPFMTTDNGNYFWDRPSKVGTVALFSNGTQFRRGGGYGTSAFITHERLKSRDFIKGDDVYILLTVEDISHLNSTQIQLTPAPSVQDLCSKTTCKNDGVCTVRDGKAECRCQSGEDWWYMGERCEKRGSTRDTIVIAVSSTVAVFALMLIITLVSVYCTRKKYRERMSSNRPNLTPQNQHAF
The class given is biochemical. Conditions: for Ki: Ki(app) Meprin β, geometric mean of three independent experiments with standard deviation factor.

On to `N#Cc1ccc(-c2n[nH]c(-c3ccccc3)c2CC(=O)NO)cc1` [14i, 2-[3-(4-Cyanophenyl)-5-phenyl-1H-pyrazol-4-yl]ethanehydroxamic acid], for which, on human meprin α, the Ki is 13.6 nM and the “SF: selectivity factor (Ki(app) meprin β/Ki(app) meprin α)” value (“SF: selectivity factor” for short) came to 71.
Consider `O=C(Cc1c(-c2ccccc2)nn(-c2ccc(C(=O)O)cc2)c1-c1ccccc1)NO` [21d, 4-[4-[2-(Hydroxyamino)-2-oxo-ethyl]-3,5-diphenyl-pyrazol-1-yl]benzoic acid], for which, on human meprin α, the Ki is 4 nM and the “SF: selectivity factor” value is reported as 46. On human meprin β, this compound had a Ki of 182 nM. The “increased inhibition of meprin β by factor” value on human meprin β (in comparison to the N-phenyl pyrazole 21b) is 3.
With `O=C(Cc1c(-c2cccc(C(=O)O)c2)n[nH]c1-c1cccc(C(=O)O)c1)NO` [16b, 3-[3-(3-Carboxyphenyl)-4-[2-(hydroxyamino)-2-oxo-ethyl]-1H-pyrazol-5-yl]benzoic acid], on human meprin α, the “SF: selectivity factor” value is on record as 1. Further, the Ki at human meprin β amounted to 14.5 nM.
Consider `O=C(Cc1c(-c2ccccc2)[nH]nc1[C@H]1CC[C@H](C(=O)O)CC1)NO` [14s, Trans-4-[4-[2-(hydroxyamino)-2-oxo-ethyl]-5-phenyl-1H-pyrazol-3-yl]cyclohexanecarboxylic acid], for which, at human meprin α, the Ki came out at 11.6 nM and the “SF: selectivity factor” value amounted to 8.
For the compound `O=C(Cc1c(-c2ccc(Cl)c(O)c2F)n[nH]c1-c1ccc(Cl)c(O)c1F)NO` [16d, 2-[3,5-Bis(4-chloro-2-fluoro-3-hydroxyphenyl)-1H-pyrazol-4-yl]ethanehydroxamic acid], at human meprin α, the Ki was 4.2 nM and the “SF: selectivity factor” value was 3.
`O=C(Cc1c(-c2ccccc2)nn(-c2ccccc2)c1-c1ccccc1)NO` [21b, 2-(1,3,5-Triphenylpyrazol-4-yl)ethanehydroxamic acid]: the results for the Ki on human meprin α and on human meprin β were 4 nM and 667 nM, respectively. At human meprin α, the “SF: selectivity factor” value was 167.
For `O=C(Cc1c(-c2ccc(C(=O)O)cc2)n[nH]c1-c1ccc(Cl)c(O)c1F)NO` [16h, 4-[5-(4-Chloro-2-fluoro-3-hydroxy-phenyl)-4-[2-(hydroxyamino)-2-oxo-ethyl]-1H-pyrazol-3-yl]benzoic acid] the same measures were 9.6 nM, 11.2 nM and 1.
On to `COc1ccc(-c2n[nH]c(-c3ccccc3)c2CC(=O)NO)cc1` [14e, 2-[3-(4-Methoxyphenyl)-5-phenyl-1H-pyrazol-4-yl]ethanehydroxamic acid], for which, at human meprin α, the Ki was determined as 1.3 nM and the “SF: selectivity factor” value is 48.
As for `O=C(Cc1c(-c2ccc3c(c2)OCO3)n[nH]c1-c1ccc(C(=O)O)cc1)NO` [16f, 4-[3-(1,3-Benzodioxol-5-yl)-4-[2-(hydroxyamino)-2-oxo-ethyl]-1H-pyrazol-5-yl)benzoic acid], at human meprin α, the Ki was 10.5 nM, the “reduction of the meprin α selectivity by factor” value is reported as 10–20 and the “SF: selectivity factor” value stood at 9.
`O=C(Cc1c([C@H]2CCCC[C@H]2C(=O)O)n[nH]c1-c1ccccc1)NO` (relative stereo) [14q, Cis-2-[4-[2-(hydroxyamino)-2-oxo-ethyl]-5-phenyl-1H-pyrazol-3-yl]cyclohexanecarboxylic acid]: at human meprin α, the Ki was found to be 0.3 nM and the “SF: selectivity factor” value came out at 127. Moreover, the Ki on human meprin β is 32.6 nM.
`N#Cc1cccc(-c2n[nH]c(-c3ccccc3)c2CC(=O)NO)c1` [14h, 2-[3-(3-Cyanophenyl)-5-phenyl-1H-pyrazol-4-yl]ethanehydroxamic acid]: on human meprin α, the Ki turned out to be 4.8 nM and the “SF: selectivity factor” value came to 67.
The like results for `O=C(Cc1c(C2CCCC2)n[nH]c1-c1ccccc1)NO` [14c, 2-(3-Cyclopentyl-5-phenyl-1H-pyrazol-4-yl)ethanehydroxamic acid] were, in that order, 5.6 nM and 53.
As to `O=C(Cc1c(-c2cccc(-c3nnn[nH]3)c2)n[nH]c1-c1ccccc1)NO` [14p, 2-[5-Phenyl-3-[3-(1H-tetrazol-5-yl)phenyl]-1H-pyrazol-4-yl]ethanehydroxamic acid], at human meprin α, the Ki amounted to 0.7 nM and the “SF: selectivity factor” value amounted to 10. At human meprin β, this compound showed a Ki of 6.7 nM. In addition, on human meprin β (compared to 7a), the “improvement in activity against meprin β by factor” value is listed as 16.
With `O=C(Cc1c(-c2ccc(C(=O)O)cc2)n[nH]c1-c1ccc(C(=O)O)cc1)NO` [16c, 4-[3-(4-Carboxyphenyl)-4-[2-(hydroxyamino)-2-oxo-ethyl]-1H-pyrazol-5-yl]benzoic acid], the “SF: selectivity factor” value on human meprin α turned out to be 2.
The same measure, in the same setting: next, `Cc1n[nH]c(-c2ccccc2)c1CC(=O)NO` [14a, 2-(3-Methyl-5-phenyl-1H-pyrazol-4-yl)ethanehydroxamic acid]: 7; `O=C(Cc1c(-c2ccccc2)[nH]nc1[C@H]1CC[C@@H](C(=O)O)CC1)NO` [14t, Cis-4-[4-[2-(hydroxyamino)-2-oxo-ethyl]-5-phenyl-1H-pyrazol-3-yl]cyclohexanecarboxylic acid]: 4; `O=C(Cc1c(-c2cc(O)no2)n[nH]c1-c1ccccc1)NO` [14n, 2-[3-(3-Hydroxyisoxazol-5-yl)-5-phenyl-1H-pyrazol-4-yl]ethanehydroxamic acid]: 1.
As for `O=C(Cc1c(-c2ccc(Cl)c(O)c2F)n[nH]c1-c1ccccc1)NO` [14l, 2-[3-(4-Chloro-2-fluoro-3-hydroxyphenyl)-5-phenyl-1H-pyrazol-4-yl]ethanehydroxamic acid], on human meprin α, the Ki was found to be 2.2 nM and the “SF: selectivity factor” value was found to be 31.
As to `O=C(Cc1c(-c2c[nH]nc2C(F)(F)F)n[nH]c1-c1ccccc1)NO` [14o, 2-[5-Phenyl-3-[3-(trifluoromethyl)-1H-pyrazol-4-yl]-1H-pyrazol-4-yl]ethanehydroxamic acid], at human meprin α, the Ki stood at 1.6 nM and the “SF: selectivity factor” value is listed as 55.
The like results for `O=C(Cc1c(C2CCCC(C(=O)O)C2)n[nH]c1-c1ccccc1)NO` (stereo not shown) [14r, 3-[4-[2-(Hydroxyamino)-2-oxo-ethyl]-5-phenyl-1H-pyrazol-3-yl]cyclohexanecarboxylic acid] were, in that order, 1.4 nM and 39.
For `O=C(Cc1c(-c2ccc(C(=O)O)cc2)n[nH]c1-c1ccccc1)NO` [14k, 4-[4-[2-(Hydroxyamino)-2-oxo-ethyl]-5-phenyl-1H-pyrazol-3-yl]benzoic acid] the same measures were 17.2 nM and 7.
For `O=C(Cc1c(-c2cccc(C(=O)O)c2)n[nH]c1-c1ccc(Cl)c(O)c1F)NO` [16i, 3-[5-(4-Chloro-2-fluoro-3-hydroxy-phenyl)-4-[2-(hydroxyamino)-2-oxo-ethyl]-1H-pyrazol-3-yl]benzoic acid] the same measures were 5.1 nM and 1.
Take `O=C(Cc1c(-c2cccc(C(=O)O)c2)[nH]nc1[C@H]1CC[C@H](C(=O)O)CC1)NO` [16l, 3-[3-(Trans-4-Carboxycyclohexyl)-4-[2-(hydroxyamino)-2-oxo-ethyl]-1H-pyrazol-5-yl]benzoic acid]: the “SF: selectivity factor” value on human meprin α stood at 1.
For the compound `O=C(Cc1c(-c2ccc3c(c2)OCO3)n[nH]c1-c1cccc(C(=O)O)c1)NO` [16e, 3-[3-(1,3-Benzodioxol-5-yl)-4-[2-(hydroxyamino)-2-oxo-ethyl]-1H-pyrazol-5-yl)benzoic acid], at human meprin α, the Ki came out at 3.1 nM, the “reduction of the meprin α selectivity by factor” value is 10–20 and the “SF: selectivity factor” value worked out at 15.
As to `O=C(Cc1c(-c2cccc(C(=O)O)c2)n[nH]c1-c1ccccc1)NO` [14j, 3-[4-[2-(Hydroxyamino)-2-oxo-ethyl]-5-phenyl-1H-pyrazol-3-yl]benzoic acid], at human meprin α, the Ki was 7.5 nM and the “SF: selectivity factor” value is recorded as 6.
In the case of `O=C(Cc1c(Cc2ccccc2)n[nH]c1-c1ccccc1)NO` [14b, 2-(3-Benzyl-5-phenyl-1H-pyrazol-4-yl)ethanehydroxamic acid], the “SF: selectivity factor” value at human meprin α amounted to 25.
